Entries after “also recorded” stand apart in the source; their conditions may differ.
Columns and labels:
NCI/ADR-RES cells = assay: Colony formation assay; assay type: cell-based, human; details: 24 h treatment; low concentration
Procedure: Colony formation assay. Colony formation assay is an in vitro cell survival assay based on the ability of a single cell to grow into a colony. This technique was also performed to confirm the activity. Briefly, cells were plated in 96-well plates at a density of 300 cells/well and allowed to attach overnight. The next day, the corresponding compounds were added and allowed to incubate for 24 h. After exposure, cells were changed the new media and cultured until colonies were formed (7-10 days). Cells were subsequently washed and stained with a solution of crystal violet for 30 min. After staining, cells were thoroughly washed with water. Colonies were imaged on the inverted fluorescence microscope and were counted using ImageJ software.

C-MYC = assay: Western blotting of C-MYC protein levels in cancer cells; assay type: cell-based, human
Procedure: Cells (5×10^5) were cultured in 6-well plate and treated with KJA03 at designated concentrations. After treatment, cells were lysed with cell lysis buffer on ice at 4° C., sonicated for 3 min, centrifuged (12,000 rpm, 10 min, 4° C.) and then, the supernatant was collected. Protein concentrations of supernatants were evaluated with BCA assay. Proteins were resolved in 10% SDS/PAGE and electrotransferred to Immun-Blot PVDF membrane (Bio-Rad). After blocking with 5% milk in TBST (Tris-buffered saline with 0.1% Tween 20), membranes were probed with primary antibodies (anti-PARP, anti-caspase 3 and anti-GAPDH) 1:1000 dilutions overnight at 4° C. Membranes were then washed with TBST (5 min×3), incubated with Dylight 800-conjugated secondary antibodies 1:7500 dilutions in 5% milk for 1 h at room temperature, and washed with TBST (5 min×3). Fluorescent signal was then scanned by Odyssey Imaging Systems (LI-COR Biosciences).
The effect of KJA03 on the MYC protein levels, including C-MYC and N-MYC, NCI/ADR-RES cells were treated with KJA03 at concentration of 0.1 (half IC50) and 0.2 (IC50) μM for 24 and 48 h. […] It has previously been reported that JQ1 treatment leads to down-regulation of c-MYC protein levels in osteosarcoma, leukemia and lymphoma cells (see, e.g., Mertz, J. A.; et al., Proceedings of the National Academy of Sciences 2011, 108, 16669-16674).
Experiments were conducted to further repeat the experiment and JQ1 was chosen as a positive control. As expected, expression of C-MYC was reduced by KJA03 at 24 h of treatment, correlated with previous experiment (FIG. 3).
Experiments were conducted that further performed a time-course experiment to evaluate C-MYC suppression including 2, 6, 8 24 and 48 h at concentration of 0.2 μM. To define the specificity of MYC suppression in further detail, we treated cells with a range of compound concentrations at 24 h. […] To determine whether KJA03 can suppress C-MYC in different cell lines, we next investigated the level of C-MYC in response to treatment with KJA03 at 0.2 μM using other three different OVCAR8, MIA PaCa-2 and Panc-1 cell lines.

Panc1 = assay: MTT assay (cytotoxicity), Panc1; assay type: cell-based; details: Homo sapiens, PANC-1, 72 h, drug concentration causing a 50% decrease in cell population
Procedure: (§1) The evaluation of cytotoxicity was based on the reduction of MTT dye by viable cells to give purple formazan products, which can be measured spectrophotometrically at 540 nm. One hundred eighty microliters of cancer cells were seeded into 96-well plates at 3,500-4,000 cells/well and incubated at 37° C. overnight before the indicated treatments. After 72 h, 20 μl of MTT solution (3 mg/ml) was added and incubated again for 3 h. After removal of media and solubilization of formazan crystals in 150 μL of DMSO, the absorbance was measured at 570 nm. Percentage of cell growth inhibition was expressed as 1-[(A−B)/(C−B)]×100% (A, B and C were the absorbance values from experimental, blank and control cells, respectively).
(§2) KJA derivatives were tested by the MTT assay against five human cancer cell lines including ovarian cancer cell lines (OVCAR-8, NCI/ADR-RES and SKOV3) and pancreatic cancer cell lines (MIA PaCa-2 and Pac-1). […] It is important to note that the NCI/ADR-RES cell line shares a large number of karyotypic abnormalities with OVCAR-8 but expresses high levels of MDR1 (multidrug resistance protein 1)/P-glycoprotein (see, e.g., Xu, S.; et al., Proceedings of the National Academy of Sciences 2012, 109, 16348-16353), resulting in resistance to multiple anticancer drugs in clinical use, including paclitaxel and doxorubicin.

SKOV3 = assay: MTT assay (cytotoxicity), SKOV3; assay type: cell-based; details: Homo sapiens, SK-OV-3, 72 h, drug concentration causing a 50% decrease in cell population
Procedure: as §1, §2

[1] = tested on: five human cancer cell lines (OVCAR-8, NCI/ADR-RES, SKOV3, MIA PaCa-2, Pac-1); assay: MTT assay, panel of five human cancer cell lines; assay type: cell-based; details: span over the five cell lines, read-out: IC50 against five cancer cell lines
Procedure: as §1, §2

MIA PaCa-2 = assay: MTT assay (cytotoxicity), MIA PaCa-2; assay type: cell-based; details: Homo sapiens, 72 h, drug concentration causing a 50% decrease in cell population
Procedure: as §1, §2

With `Cc1ccc(-c2noc(-c3ccccc3-n3c(-c4ccc(C)cc4)noc3=O)n2)cc1` [KJA03, 3-(P-tolyl)-4-(2-(3-(p-tolyl)-1,2,4-oxadiazol-5-yl)phenyl)-1,2,4-oxadiazol-5(4H)-one] the “colony formation in NCI/ADR-RES” value (NCI/ADR-RES cells) was “significantly inhibited colony formation”, the “MYC suppression, ovarian versus pancreatic cancer cells” value (C-MYC; 0.2 μM, OVCAR8, NCI/ADR-RES, MIA PaCa-2 and Panc-1) was “suppresses MYC strongly in ovarian cancer cells” and the MYC protein levels (C-MYC; 0.1 (half IC50) and 0.2 (IC50) μM at 24 and 48 h) was “significantly reduce MYC protein levels”. The “C-MYC protein levels, range of concentrations” value (“C-MYC protein levels, range” for short) (C-MYC; MiaPaca-2) was “down-regulated dose-dependently”, the C-MYC protein levels (C-MYC; NCI/ADR-RES cells, 0.2 μM, 24 h) was “reduced C-MYC levels; also recorded: efficiently decrease the C-MYC protein levels” and the “C-MYC suppression, time-course” value (C-MYC; NCI/ADR-RES, 0.2 μM, 2, 6, 8, 24 and 48 h) was “significantly suppressed only at 24 h”. For the same compound, the “C-MYC protein levels, range” value (C-MYC; NCI/ADR-RES, 24 h) was “decreased levels of C-MYC in a dose-dependent manner; also recorded: down-regulated dose-dependently”, the “C-MYC protein levels, range” value (C-MYC; OVCAR8) was “down-regulated dose-dependently” and the “C-MYC protein levels, range” value (C-MYC; Pac-1) was “down-regulated dose-dependently”. The IC50 (Panc1) was 170 nM, the IC50 (SKOV3) was 310 ± 160 nM and the IC50 [1] was 130 to 310 nM. The IC50 (MIA PaCa-2) was 130 nM.

— patent US11214567B2, “Small molecule inhibitors of MYC and uses thereof” (The Regents of the University of Michigan, priority 2017, dated 2022)
